Earlier results as cited in patent US20120108678A1, “BRANCHED COPOLYMERS, COMPOSITIONS AND USES” (UNILEVER PLC, priority 2009, published 2012).

Structure (SMILES)	water solubility (water-insoluble monomer examples)	Solubility in water w/w at 20° C.
C=Cc1ccccc1 [styrene]	0.02 % w/w	
C=CC(=O)OCCO [2-Hydroxyethyl acrylate]		soluble
C=C(C)C(=O)O [Methacrylic acid]		Soluble
C=C(C)C(=O)OCCO [2-Hydroxyethyl methacrylate]		3.00 w/w
C=CC(=O)OCC(C)O (centres unmarked) [2-Hydroxypropyl acrylate]		Soluble
